In series [1] the test system is Trypanosoma cruzi. Put plainly: Effect on infection-mediated heart weight in Trypanosoma cruzi Y strain trypomastigotes infected in BALB/c mouse model at 100 mg/kg/day, po administered for consecutive 10 days. Format: functional, organism-based. Conditions: time 10.0 day.
The subject of series [2] is Trypanosoma cruzi. Description: Binding affinity to Trypanosoma cruzi type I nitro reductase at 10 uM incubated for 5 mins in the presence of NADH by microplate reader analysis.
Series [3] deals with Trypanosoma cruzi. Put plainly: Antitrypanosomal activity against Trypanosoma cruzi Y trypomastigotes infected in BALB/c mouse model assessed as reduction of parasite load in cardiac tissue by measuring reduction in DNA copy number at 25 to 100 mg/kg/day, po administered via gavage observed on 11 day of post infection by qPCR analysis relative to control. The arrangement: scale not given: the % may be the effect or the level left. In kind it is functional. Conditions: dose 25-100 mg/kg/day.

Series [4] has as its system Trypanosoma cruzi. Put plainly: Antitrypanosomal activity against Trypanosoma cruzi Y trypomastigotes infected in BALB/c mouse model assessed as reduction of parasitemia level at 25 mg/kg/day, po administered via gavage for consecutive 10 days and measured on day 5,7,9 and 11. In kind it is functional, organism-based. Conditions: time 11.0 day.
A short description of series [5]: Toxicity in BALB/c mouse infected with Trypanosoma cruzi Y trypomastigotes assessed as body weight gain at 25 mg/kg/day, po administrated via gavage for consecutive 10 days. In kind it is organism-based. Conditions: in vivo, 240 h, time 10 day.
The subject of series [6] is Trypanosoma cruzi. Put plainly: Effect on infection-mediated heart weight in Trypanosoma cruzi Y strain trypomastigotes infected in BALB/c mouse model at 25 mg/kg/day, po administered for consecutive 10 days. Format: functional, organism-based. To be noted: time 10.0 day.
For series [7], the system named is Trypanosoma cruzi. Description: Binding affinity to Trypanosoma cruzi type I nitro reductase at 25 uM incubated for 5 mins in the presence of NADH by microplate reader analysis.
Series [8] has as its system Trypanosoma cruzi. Put plainly: Antitrypanosomal activity against Trypanosoma cruzi Y strain trypomastigotes infection induced hepatosplenomegaly BALB/c male mouse model assessed as change in infection-mediated spleen weight at 25 mg/kg/day, po administrated for consecutive 10 days. Format: functional, organism-based. Conditions: time 10.0 day.
The test system of series [9] is Trypanosoma cruzi. Put plainly: Antitrypanosomal activity against Trypanosoma cruzi Tulahuen lacZ expressing beta-galactosidase amastigotes infected in monkey LLC-MK2 cells assessed as inhibition of amastigotes pre-infected in cells for 48 hrs followed by compound addition and measured after 72 hrs by CPRG reagent based absorbance analysis. Format: functional, organism-based.

Series [10] deals with Trypanosoma cruzi. Put plainly: Antitrypanosomal activity against Trypanosoma cruzi Y strain trypomastigotes infection induced hepatosplenomegaly BALB/c male mouse model assessed as change in infection-mediated liver weight at 25 mg/kg/day, po administrated for consecutive 10 days. Conditions: time 10.0 day. In kind it is functional, organism-based.
A short description of series [11]: Toxicity in BALB/c mouse infected with Trypanosoma cruzi Y trypomastigotes assessed as animal survival at 100 mg/kg/day, po administrated via gavage for consecutive 10 days relative to control. In kind it is organism-based. Conditions: in vivo, time 10 day.
The nature of series [12]: Cytotoxicity against monkey LLC-MK2 cells incubated for 72 hrs by MTT assay. Format: toxicity, cell-based, Macaca mulatta. Conditions: rhesus monkey. A general note: Tetrazolium assays rely on reduction of a dye to a coloured formazan, in cell work by metabolically active cells.
The nature of series [13]: Toxicity in BALB/c mouse infected with Trypanosoma cruzi Y trypomastigotes assessed as animal survival at 25 mg/kg/day, po administrated via gavage for consecutive 10 days relative to control. Format: organism-based. Conditions: in vivo, time 10 day.
A short description of series [14]: Toxicity in BALB/c mouse infected with Trypanosoma cruzi Y trypomastigotes assessed as body weight gain at 100 mg/kg/day, po administrated via gavage for consecutive 10 days. Format: organism-based. To be noted: in vivo, 240 h, time 10 day.
A short description of series [15]: Selectivity index, ratio of CC50 for monkey LLC-MK2 cells to IC50 for Trypanosoma cruzi Tulahuen lacZ expressing beta-galactosidase amastigotes infected monkey LLC-MK2 cells. In kind it is toxicity. To be noted: read-out: Ratio CC50/IC50.

pIC50: −log10 of the molar value. Calls of active or inactive are those of the source. No cut-off for these calls is given here. Where only a bound is given, the exact number is not on record here.

For orientation: pIC50 means the IC50 on a negative log10 scale, so that one unit is a factor of ten. What is called CC50 is the concentration giving 50% cytotoxicity.

As for `O=C(Cn1ccnc1[N+](=O)[O-])NCc1ccccc1` [BENZNIDAZOLE], the outcome in the series on Trypanosoma cruzi [1], in the series with Trypanosoma cruzi [4] and in the series with Trypanosoma cruzi [6] was inactive. Moreover, the values for the Kobs in the series on Trypanosoma cruzi [2] and in the series with Trypanosoma cruzi [7] were 0.13 s⁻¹ and 0.3 s⁻¹, respectively. Besides, the Activity in the series with Trypanosoma cruzi [3] is listed as 99%; in [5], “Non-Toxic”; in series [14], “Non-Toxic”. Further, the result in the series with Trypanosoma cruzi [8] and in the series on Trypanosoma cruzi [10] was Active. Further, in the series on Trypanosoma cruzi [9], the negative logarithm of the IC50 (pIC50) is 5.42. The survival at 240 h in series [11] and in [13] was 100% in each case. Moreover, the 50% cytotoxic concentration (CC50) at 72 h in [12] was over 50 µM. Besides, the selectivity ratio in [15] was over 9.3.
